Results on one molecule are retold here after PMC9099121, “Population pharmacokinetic and exposure‐response analyses from ALTA‐1L: Model‐based analyses supporting the brigatinib dose in ALK‐positive NSCLC” (Clinical and Translational Science, 2022).

In one data set the test system is ALK+ NSCLC. Kind of data set: Exposure-PFS analysis (Kaplan-Meier, Cox PH models), ALTA-1L. The data set is classed as in vivo, human.
The nature of data set [1]: Population PK model (Bayesian re-estimation), brigatinib arm of ALTA-1L (first-line). The format is in vivo, human. Particulars: geometric mean (5th and 95th percentiles). The procedure: The population PK and exposure‐response analyses evaluated data from the brigatinib arm (180 mg q.d. with a 7‐day lead‐in at 90 mg q.d.) of the ALTA‐1L trial (second interim analysis, data cutoff date: June 28, 2019).[8] […] Blood samples for measurement of brigatinib plasma concentrations were obtained predose on day 1 of cycle one (28 day/cycle); predose and 1, 4, and 6 to 8 h postdose on day 1 of cycle two; and predose and any time between 1 and 8 h postdose on day 1 of cycles three, four, and five. Plasma samples were analyzed for brigatinib concentrations using a validated liquid chromatography/tandem mass spectrometry assay with a lower limit of quantification of 5 ng/mL. Efficacy assessments were based on computed tomography or magnetic resonance imaging performed at screening, every 8 weeks through cycle 14, and then every 12 weeks through treatment discontinuation.[8] Safety data were collected as they were reported.
The previously developed population PK model[11] was used for population PK analyses of ALTA‐1L data. The previous analysis provided a robust and comprehensive characterization of brigatinib PK and sources of variability. Importantly, the previous analysis included 202 patients with ALK+ NSCLC that progressed on other ALK TKIs, representing a similar patient population to patients receiving first‐line brigatinib in ALTA‐1L. These considerations supported a Bayesian re‐estimation approach for deriving individual brigatinib PK parameters in ALTA‐1L using the previously reported model, and the model was applied without modification. In brief, the population PK model described brigatinib PK using a three‐compartment model with linear distribution and elimination kinetics and first‐order absorption preceded by a set of transit compartments.[11] The model included albumin concentration as a covariate on apparent oral clearance (CL/F). Bayesian re‐estimation was performed by setting initial model conditions to values of fixed effects and random effect variances previously estimated,[11] allowing for estimation of individual PK parameters based on the PK observations in the ALTA‐1L dataset.
Diagnostic plots were created to compare brigatinib PK in patients in ALTA‐1L (first‐line setting) and ALTA (second‐line setting). […] In exploratory analyses, relationships between covariates of interest and model‐based exposure estimates were evaluated using linear regression models with each covariate as a predictor.

On the set-up of data set [2]: method as in earlier work. As to conditions: after administration of 180 mg q.d.; cited from earlier work.
For data set [3], the system named is advanced ALK+ NSCLC that progressed on crizotinib. As to conditions: ALTA, cited from earlier work.
Where [4] appears, read: 180 mg q.d. with 7-day lead-in at 90 mg q.d.
The mark [5] stands for this setting: patients with measurable baseline brain metastases.

In general, AUC refers to concentration integrated over time. With `COc1cc(N2CCC(N3CCN(C)CC3)CC2)ccc1Nc1ncc(Cl)c(Nc2ccccc2P(C)(C)=O)n1` [brigatinib], the “Cox PH ratio for PFS versus exposure” value with ALK+ NSCLC (dynamic metric: daily time-averaged AUC between successive disease assessments preceding PFS event or censoring, p = 0.08) was 1.02. In addition, in the data set on ALK+ NSCLC (dynamic metric: daily time-varying AUC preceding progression or censoring, p = 0.69), the “Cox PH ratio for PFS versus exposure” value is 1.01 [0.98–1.03]. Further, the “HR [95% CI] of disease progression or death per one-unit increase in exposure (Cox PH model)” value in the data set on ALK+ NSCLC (static metric: time-averaged AUC between the last two disease assessments, p = 0.01) was 1.03 [1.01–1.05]. Moreover, in data set [1] (ALTA-1L n = 123), the “Albumin covariate effect on CL/F” value is 1.03 (0.874, 1.13); the CL/F is 8.45 (4.04, 17.8) L/h; the Mean transit time is 1.01 (0.538, 2.36) h; the Q2/F was 12.6 (12.6, 12.6) L/h. In data set [1] (ALTA-1L n = 123), the Q3/F was 2.67 (2.67, 2.67) L/h; the V1/F is 160 (69.0, 302) L; the V2/F is on record as 118 (46.5, 283) L; the V3/F is reported as 78.5 (78.5, 78.5) L. The AUC in data set [1] (human, plasma, oral, maintenance dose 180 mg q.d., ALTA-1L, read-out: Daily steady-state post hoc AUC) was 21300 ng·h/mL. Also, the “Mean plasma elimination half-life” value in data set [2] was 25 h. Moreover, in data set [3] (setting [4]), the “IRC-assessed confirmed objective response rate (ORR)” value is reported as 56% and the “Median IRC-assessed progression-free survival (PFS)” value is given as 16.7 months. Besides, in data set [3] (setting [5]), the “IRC-assessed intracranial ORR (iORR)” value is 67% and the “Median duration of (intracranial) response” value was 16.6 months.
